Measurements published in US11130780B2, “Inhibitors of growth factor activation enzymes” (Washington University, priority 2015, dated 2021).
“And” between values parts separate entries of the source, which are not always exact repeats. Equal values may be shown once. Read-outs that look alike come from different tables or passages of the source. One block for each compound: values may come before it.

Experiments:
Format in all cases: biochemical
hepsin [1] = molecular target: T1, hepsin (Homo sapiens, UniProt P05981); assay: Fluorescent kinetic enzyme inhibitor assay of hepsin; details: Fluorogenic Assay, read-out: Hepsin Ki
T1 construct: purchased R&D Systems 4776-SE-010
T1 sequence (P05981 163-417 limits assumed): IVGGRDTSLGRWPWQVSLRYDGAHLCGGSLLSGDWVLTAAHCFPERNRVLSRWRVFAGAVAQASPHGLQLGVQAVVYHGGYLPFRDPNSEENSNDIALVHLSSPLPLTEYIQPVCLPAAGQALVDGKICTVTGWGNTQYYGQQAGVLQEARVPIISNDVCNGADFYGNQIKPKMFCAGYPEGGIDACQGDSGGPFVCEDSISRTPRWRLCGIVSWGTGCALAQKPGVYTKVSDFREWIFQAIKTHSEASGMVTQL
T1 sequence (P05981 45-162 partner limits assumed): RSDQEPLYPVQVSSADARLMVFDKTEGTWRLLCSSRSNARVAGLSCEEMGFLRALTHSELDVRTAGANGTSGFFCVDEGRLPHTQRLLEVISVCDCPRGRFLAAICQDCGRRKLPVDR
Protocol: (§1) Inhibitors (11-pt serial dilutions, 0-20 μM final concentration in reaction) were serially diluted in DMSO (2% DMSO final concentration) and then mixed with either recombinant serine protease domain of HGFA [Z. Han, P. K. Harris, D. E. Jones, R. Chugani, T. Kim, M. Agarwal, W. Shen, S. A. Wildman, J. W. Janetka, Acs Med Chem Lett 2014, 5, 1219-1224], matriptase (Charles Craik, UCSF) or hepsin* (#4776-SE-010, R&D Systems, Minneapolis, Minn.) in black 384 well plates (Corning #3575. Corning, N.Y.). […] The final substrate concentrations for all assays were at the Km for the respective enzymes. Changes in fluorescence (excitation at 380 nm and emission at 460 nm) were measured at room temperature over time in a Biotek Synergy 2 plate reader (Winnoski, Vt.). Using GraphPad Prism version 6.04 software program, (GraphPad Software, San Diego, Calif., www.graphpad.com), a four parameter curve fit was used to determine the inhibitor IC50s from a plot of the mean reaction velocity versus the inhibitor concentration. The IC50 values represent the average of three separate experimental determinations.

HGFA [2] = molecular target: T2, HGFA (Homo sapiens, UniProt Q04756); assay: Fluorescent kinetic enzyme inhibitor assay of HGFA; details: Fluorogenic Assay, read-out: HGFA Ki
T2 construct: His6 tag (N); seven amino acid spacer and seven amino acid TEV cleavage site (N); Honey Bee melittin signal peptide (N); made in house; host or cells: High 5 insect cells (baculovirus; virus raised in Sf9)
T2 sequence (Q04756 373-655): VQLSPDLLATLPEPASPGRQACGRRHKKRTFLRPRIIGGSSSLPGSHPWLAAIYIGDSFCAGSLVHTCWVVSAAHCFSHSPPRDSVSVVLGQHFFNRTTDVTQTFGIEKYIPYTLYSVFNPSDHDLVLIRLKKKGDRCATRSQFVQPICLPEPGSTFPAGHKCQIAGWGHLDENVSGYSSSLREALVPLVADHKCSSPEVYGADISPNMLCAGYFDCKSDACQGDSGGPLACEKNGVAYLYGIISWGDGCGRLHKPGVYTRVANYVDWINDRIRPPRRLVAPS
Text: Using primers identified as SEQ ID NO 1, SEQ ID NO 2, and standard PCR protocols, the nucleotide sequence encoding amino acids 373-655 of HGFA was synthesized. This PCR product was cloned into the SfoI-HindIII sites of a modified pFastBac HT baculovirus expression vector (Addgene, Cambridge, Mass.). This vector contains a six amino His tag followed by a seven amino spacer and a seven amino acid TEV cleavage site placed immediately downstream of the Honey Bee melittin signal peptide. Using a modified Bac to Bac Expression System (Life Technologies, Carlsbad, Calif.), recombinant HGFA bacmids were obtained by transforming DH10Bac Escherichia coli cells. To obtain HGFA containing baculovirus, purified bacmids were transfected into Sf9 insect cells. After 5 days in culture at 27° C., media was harvested from transfected Sf9 cells. This media was used to prepare baculovirus infected insect cells (BIICs). These BIIICs were used to infect High 5 insect cells. Four days post infection, media was harvested and recombinant protein prepared as follows. Media was chilled to 4° C. and spun at 4000×g for 20 minutes (all subsequent steps were performed at 4° C. unless noted). Clarified media was passed first through a Whatman GF/B 1 um (#1821-047, GE Healthcare Life Sciences, Piscataway, N.J.) and then a 0.22 um PES membrane (#99955, TPP Techno Plastic Products AG, Trasadingen, Switzerland) and then concentrated using a Pall Centramate tangential flow system and Centramate T-series Cassette (#OS010T12, Pall Corporation, Port Washington, N.Y.). Concentrated media was then buffer exchanged in two steps, five volumes of 50 mM Na-phosphate, 500 mM NaCl, pH 6.2, followed by five volumes of 50 mM Na-phosphate, 500 mM NaCl, pH 7.5. The concentrated and buffered exchanged insect cell media was again filtered as above and made 25 mM imidazole (#1202, Sigma-Aldrich, St. Louis, Mo.) and was mixed with nickel agarose beads (#H-321-25, Gold Biotechnology, Inc., St. Louis Mo.). After mixing this slurry for 12 hours, nickel agarose beads were allowed to settle by gravity and then loaded into a column. Beads were washed with buffer (25 mM Na-phosphate, 500 mM NaCl, 25 mM imidazole, pH 8) and the bound protein eluted using (25 mM Na-phosphate, 500 mM NaCl, 250 mM imidazole, pH 8). Using a Amicon Ultra-4 Centrifugal filters (#UFC801008, Merck Millipore, Ltd., Tullagreen, Ireland), peak protein fractions were concentrated and run over a Superdex-200 10/300 GL column (GE Healthcare Life Sciences, Piscataway, N.J.) in 10 mM Tris, 200 mM NaCl, 0.2 mM EDTA, pH 8. HGFA containing fractions were pooled, concentrated, made 50% glycerol, and stored at minus 20° C. Protein was quantitated using a modified Lowry protein assay (#500-0006, Bio-Rad Laboratories, Hercules, Calif.).
as §1

matriptase = molecular target: T3, matriptase (Homo sapiens, UniProt Q9Y5Y6); assay: Fluorescent kinetic enzyme inhibitor assay of matriptase; details: Fluorogenic Assay
T3 construct: Charles Craik, UCSF (obtained from another laboratory)
T3 sequence (Q9Y5Y6 615-855 limits assumed): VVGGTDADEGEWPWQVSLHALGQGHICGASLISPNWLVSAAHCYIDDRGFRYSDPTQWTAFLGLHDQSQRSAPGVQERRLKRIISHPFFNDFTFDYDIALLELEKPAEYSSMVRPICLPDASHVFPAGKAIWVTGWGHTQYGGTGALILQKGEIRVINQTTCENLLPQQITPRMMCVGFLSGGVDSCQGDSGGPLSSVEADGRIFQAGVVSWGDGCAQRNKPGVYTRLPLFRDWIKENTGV
Protocol: as §1

hepsin [3] = molecular target: T1, hepsin; assay: P4-P2 substrate specificity using HyCoSuL, hepsin; set-up: concentration or dose not given beside the values; details: HyCoSuL substrate library; for P2 Position % Activity Hepsin: amino acid fixed at P2 position; for P3 Position % Activity Hepsin: amino acid fixed at P3 position; for P4 Position % Activity Hepsin: amino acid fixed at P4 position
Protocol: (§2) Each of the P4, P3, and P2 sublibraries were screened at the 100 μM concentration with hepsin either HGFA in a 100 μL final volume per well (99 μL of protease in buffer+1 μL of 10 mM substrates mixture). The total time of the assay was 30 minutes, however only linear portions of the progress curve (5-15 minutes) were used for velocity (RFU/s) calculations. Each sublibrary screening was repeated at least 3-times and the average value calculated from each measurement was used to create the substrate specificity matrix—the best recognized amino acid in each position was set to 100%, and other amino acids were adjusted accordingly.
Recombinant human hepsin (10 μg in 20 uL, 4776-SE-010, R&D Systems) was added to the 100 μL of activation buffer (0.1 M Tris, 0.15 M NaCl, 0.01 M CaCl2, 0.05% TRITON-X, pH=8.0) and incubated at 37° C. for 24 hours (hepsin concentration in activation buffer 2 μM). Once activated hepsin was diluted in assay buffer (0.05 M Tris, pH=9.0) to the final concentration of 4 nM and incubated at 37° C. for 15 minutes before added to a substrate.

HGFA [4] = molecular target: T4, HGFA (Homo sapiens, UniProt Q04756); assay: P4-P2 substrate specificity using HyCoSuL, HGFA; set-up: P3 Position % Activity HGFA / P2 Position % Activity HGFA: concentration or dose not given beside the values; P4 Position % Activity HGFA: tested at 100 µM; details: HyCoSuL substrate library; for P2 Position % Activity HGFA: amino acid fixed at P2 position; for P3 Position % Activity HGFA: amino acid fixed at P3 position; for P4 Position % Activity HGFA: amino acid fixed at P4 position
T4 sequence (Q04756 408-655 limits assumed): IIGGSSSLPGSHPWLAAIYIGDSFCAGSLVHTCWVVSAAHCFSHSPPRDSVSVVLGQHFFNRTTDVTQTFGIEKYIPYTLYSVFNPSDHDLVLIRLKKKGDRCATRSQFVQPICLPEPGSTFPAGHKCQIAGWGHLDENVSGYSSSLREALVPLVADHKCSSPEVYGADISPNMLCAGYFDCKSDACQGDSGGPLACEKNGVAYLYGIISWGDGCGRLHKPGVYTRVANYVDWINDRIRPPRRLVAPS
T4 sequence (Q04756 373-407 partner limits assumed): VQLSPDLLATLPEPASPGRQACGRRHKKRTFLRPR
Protocol: as §2
HFGA enzyme was diluted in the assay buffer (0.15 M NaCl, 0.025 M Tris, 0.005 M CaCl2, pH=8.0) to the final concentration of 10-20 nM (depending of sublibrary) and incubated at 25° C. for 30 minutes before added to a substrate.

Ki (hepsin [1]; Table 6.1): 0.00141 µM
Ki (HGFA [2]; Table 6.1): 0.981 µM
Compound: N=C(N)NCCC[C@H](NC(=O)[C@H](Cc1ccccc1)NC(=O)[C@H](N)Cc1c[nH]c2ccccc12)C(=O)c1nc2ccc(C(=O)O)cc2s1 [Compound 1-45A1, H-dWFR-kbt-COOH]

Ki (hepsin [1]; Table 9.1): 3.28 µM
Ki (matriptase; Table 9.1): 0.3 µM
Ki (HGFA [2]; Table 9.1): 10.1 µM
Compound: N=C(N)c1cccc(C[C@H](NS(=O)(=O)c2ccc3ccccc3c2)C(=O)N2CCC(c3ccccc3)CC2)c1 [Compound 16, (S)-3-(2-(Naphthalene-2-sulfonamido)-3-oxo-3-(4-phenylpiperidin-1-yl)propyl)benzimidamide]

Ki (hepsin [1]; Table 9.1): 1 µM and 1.04 µM
Ki (matriptase; Table 9.1): 2.06 µM and 2.56 µM
Ki (HGFA [2]; Table 9.1, listed as FMF-1-279-003): 14 µM
Ki (HGFA [2]; Table 9.1): 14 µM
Compound: N=C(N)c1cccc(C[C@H](NS(=O)(=O)c2ccc3ccccc3c2)C(=O)N2CCN(C(=O)NCc3ccccc3)CC2)c1 [Compound 17a, (S)—N-Benzyl-4-(3-(3-carbamimidoylphenyl)-2-(naphthalene-2-sulfonamido)propanoyl)piperazine-1-carboxamide]

Ki (hepsin [1]; Table 9.2): 2.3 µM
Ki (matriptase; Table 9.2): 1 µM
Ki (HGFA [2]; Table 9.2): > 50 µM
Compound: Cc1ccc(S(=O)(=O)N[C@@H](Cc2cccc(C(=N)N)c2)C(=O)N2CCC[C@H](NC(=O)OCc3ccccc3)C2)cc1 [Compound 18, Benzyl (S)-1-((S)-3-(3-carbamimidoylphenyl)-2-(4-methylphenylsulfonamido)propanoyl)piperidin-3-ylcarbamate]

Ki (hepsin [1]; Table 9.1): 2.4 µM
Ki (HGFA [2]; Table 9.1): > 50 µM
Compound: Cc1ccc(S(=O)(=O)N[C@@H](Cc2cccc(C(=N)N)c2)C(=O)N2CCN(C(=O)OCc3ccccc3)CC2)cc1 [Compound 25h, (S)-Benzyl 4-(3-(3-carbamimidoylphenyl)-2-(4-methylphenylsulfonamido)propanoyl)piperazine-1-carboxylate]

Ki (hepsin [1]; Table 9.1): 8.14 µM and 8.13 µM
Compound: CC(C)c1cc(C(C)C)c(S(=O)(=O)N[C@@H](Cc2cccc(C(=N)N)c2)C(=O)N2CCN(C(=O)C3CCNCC3)CC2)c(C(C)C)c1 [Compound 26]

Ki (hepsin [1]; Table 9.1): > 20 µM
Ki (matriptase; Table 9.1): > 20 µM
Compound: CC(C)C(=O)N1CCN(C(=O)[C@H](Cc2cccc(C(=N)N)c2)NS(=O)(=O)c2ccc3ccccc3c2)CC1 [Compound 29]

Ki (hepsin [1]; Table 9.1): 4.9 µM
Ki (matriptase; Table 9.1): 12.4 µM
Compound: CC(C)CN1CCN(C(=O)[C@H](Cc2cccc(C(=N)N)c2)NS(=O)(=O)c2ccc3ccccc3c2)CC1 [Compound 30]

Ki (hepsin [1]; Table 9.1): 1.7 µM
Ki (matriptase; Table 9.1): 4.4 µM
Compound: N=C(N)c1cccc(C[C@H](NS(=O)(=O)c2ccc3ccccc3c2)C(=O)N2CCN(C(=O)Cc3cccc(O)c3)CC2)c1 [Compound 31]

Ki (hepsin [1]; Table 9.1): 1 µM
Ki (matriptase; Table 9.1): 2.8 µM
Compound: N=C(N)c1cccc(C[C@H](NS(=O)(=O)c2ccc3ccccc3c2)C(=O)N2CCN(C(=O)Cc3ccc(F)cc3)CC2)c1 [Compound 32]

Ki (matriptase; Table 6.1): 0.0016 µM
Compound: N=C(N)NCCC[C@H](NC(=O)[C@H](CCC(N)=O)NC(=O)OCC1c2ccccc2-c2ccccc21)C(=O)c1nc2ccccc2s1 [Compound 7185-6, Fmoc-QR-kbt]

Ki (hepsin [1]; Table 9.1): 39.5 µM
Ki (matriptase; Table 9.1): 2.78 µM
Compound: CCOC(=O)N1CCN(C(=O)[C@H](Cc2cccc(C(=N)N)c2)NS(=O)(=O)c2ccc3ccccc3c2)CC1 [FMF-1-275-004]

P2 Position % Activity Hepsin (hepsin [3]): 0.00%
P3 Position % Activity Hepsin (hepsin [3]): 27.04%
P4 Position % Activity Hepsin (hepsin [3]): 22.58%
P2 Position % Activity HGFA (HGFA [4]): 0.00%
P3 Position % Activity HGFA (HGFA [4]): 5.76%
P4 Position % Activity HGFA (HGFA [4]): 8.25%
Compound: D-Val

Compound: L-Dab
P2 Position % Activity Hepsin (hepsin [3]): 13.49%
P3 Position % Activity Hepsin (hepsin [3]): 48.55%
P4 Position % Activity Hepsin (hepsin [3]): 47.53%
P2 Position % Activity HGFA (HGFA [4]): 0.50%
P3 Position % Activity HGFA (HGFA [4]): 29.40%
P4 Position % Activity HGFA (HGFA [4]): 16.76%

P2 Position % Activity Hepsin (hepsin [3]): 10.66%
P3 Position % Activity Hepsin (hepsin [3]): 1.64%
P4 Position % Activity Hepsin (hepsin [3]): 34.68%
P2 Position % Activity HGFA (HGFA [4]): 1.75%
P3 Position % Activity HGFA (HGFA [4]): 0.83%
P4 Position % Activity HGFA (HGFA [4]): 9.25%
Compound: L-Pip

P2 Position % Activity Hepsin (hepsin [3]): 0.00%
P3 Position % Activity Hepsin (hepsin [3]): 22.78%
P4 Position % Activity Hepsin (hepsin [3]): 30.74%
P2 Position % Activity HGFA (HGFA [4]): 0.24%
P3 Position % Activity HGFA (HGFA [4]): 15.95%
P4 Position % Activity HGFA (HGFA [4]): 10.07%
Compound: β-Ala
